Results reported in patent EP1914309A1 (priority 2006, dated 2008).

Experiments:
[1] = test system: HIV-1; conditions: concentration at which cell infection by a virus having tropism for said cell is 100% blocked
Text: A "saturating dose of an inhibitor" denotes a concentration of inhibitor at which cell infection by a virus having tropism for said cell is 100% blocked by the inhibitor, which is function of the inhibitor.

[2] = test system: X4 tropic virus; conditions: mixture of viral envelopes from reference viruses NL4-3 and JR-CSF; infection via CXCR4; inhibitor at saturating dose; Figure 5
Description: Viral supernatants are used to infect U373MG-CD4 indicator cells expressing either the CCR5 or CXCR4 co-receptor (U373-CCR5 or U373-CXCR4), in presence or absence of co-receptor inhibitors at a saturating dose. The indicator cells contain the lacZ gene under control of the HIV-1 LTR which allows the determination of viral infection and thus of viral tropism using a colorimetric assay based on the expression of the β-galactosidase by Tat (see Figure 4).
In the RVA tropism, viral infection is detected independently for both co-receptors. A sample is considered positive when the ratio [OD sample/ OD control] reaches or exceeds 1.5 (the control being an R5-tropic virus on CXCR4+ cells or a X4-tropic virus on CCR5+ cells).
On the day of infection, the condition of the indicator U373-CCR5 and U373-CXCR4 cells is verified. CXCR4- and CCR5-inhibitors are prepared at 4x their final concentrations used in the test (e.g. 4x AMD-3100 at 8 µg/ml). […]
The β-galactosidase produced by the infected U373-CCR5 or U373-CXCR4 cells is quantified: the level of marker expressed is quantified by measuring the β-galactosidase activity by using a CPRG (chlorophenolred-β-D-galactopyranoside) substrate. […]

c1cc(CN2CCCNCCNCCCNCC2)ccc1CN1CCCNCCNCCCNCC1 [AMD3100]
saturating dose of an inhibitor [1]: up to 2 µg/ml | inhibition of infection [2]: 100%
